Source: ChEMBL document CHEMBL3885881, “DrugMatrix”

Species: Rattus norvegicus
Experiment: DrugMatrix - Regimen: Daily Repeat
Assay type: toxicity, organism-based, Sprague-Dawley
Design: regimen Daily Repeat, gender Male, age 6-8 weeks
Settings: in vivo, po, route oral GAVAGE, vehicle .5 % CMC; for BASOPHIL / EOSINOPHIL / ERYTHROCYTE COUNT / HEMATOCRIT / HEMOGLOBIN / LEUKOCYTE COUNT / LYMPHOCYTE / MEAN CORPUSCULAR HEMOGLOBIN / MEAN CORPUSCULAR HEMOGLOBIN CONCENTRATION / MEAN CORPUSCULAR VOLUME / MONOCYTE / NEUTROPHIL / PLATELET COUNT: tissue Blood; for ALANINE AMINOTRANSFERASE / ALBUMIN / ALKALINE PHOSPHATASE / ASPARTATE AMINOTRANSFERASE / BLOOD UREA NITROGEN / CHLORIDE / CHOLESTEROL / CREATINE PHOSPHOKINASE / CREATININE / GLUCOSE / PHOSPHORUS / POTASSIUM / SODIUM / TOTAL BILIRUBIN / TOTAL PROTEIN: tissue Plasma
[1] = 94 mg/kg, 120 h, dose level High, time 5 day
[2] = […], 72 h, dose 9.4 mg/Kg, dose level Low, time 3 day
[3] = […], 120 h, dose 9.4 mg/Kg, dose level Low, time 5 day

In the case of O=C(CCCN1CC=C(n2c(=O)[nH]c3ccccc32)CC1)c1ccc(F)cc1 [DROPERIDOL], the BASOPHIL [1] is reported as 1.4%, the EOSINOPHIL [1] is reported as 0.5% and the “ERYTHROCYTE COUNT” value [1] is reported as 8.34 x10E6/uL. For the same molecule, the HEMATOCRIT [1] was 50.33%, the HEMOGLOBIN [1] was 16.1 G/DL and the “LEUKOCYTE COUNT” value [1] was 13.23 x10E3/uL. The LYMPHOCYTE [1] was 84.5%, the “MEAN CORPUSCULAR HEMOGLOBIN” value [1] was 19.37 pg and the “MEAN CORPUSCULAR HEMOGLOBIN CONCENTRATION” value [1] was 32.03 G/DL. The “MEAN CORPUSCULAR VOLUME” value [1] was 60.43 fL, the MONOCYTE [1] was 2.13% and the NEUTROPHIL [1] was 10.53%. The “PLATELET COUNT” value [1] was 1440.33 x10E3/uL, the “ALANINE AMINOTRANSFERASE” value [1] was 53 u/L and the ALBUMIN [1] was 3.87 G/DL. For the same molecule, the “ALKALINE PHOSPHATASE” value [1] was 248 u/L, the “ASPARTATE AMINOTRANSFERASE” value [1] was 83 u/L and the “BLOOD UREA NITROGEN” value [1] was 23.33 mg/dL. For the same molecule, the CHLORIDE [1] was 103 MEQ/L, the CHOLESTEROL [1] was 68 mg/dL and the “CREATINE PHOSPHOKINASE” value [1] was 108.67 u/L. The CREATININE [1] was 0.67 mg/dL, the GLUCOSE [1] was 160.67 mg/dL and the PHOSPHORUS [1] was 12.3 mg/dL. The POTASSIUM [1] was 7.17 MEQ/L, the SODIUM [1] was 149 MEQ/L and the “TOTAL BILIRUBIN” value [1] was 0.67 mg/dL. For the same molecule, the “TOTAL PROTEIN” value [1] was 6.93 G/DL, the BASOPHIL [2] was 1.77% and the EOSINOPHIL [2] was 0.47%. The “ERYTHROCYTE COUNT” value [2] was 7.08 x10E6/uL, the HEMATOCRIT [2] was 45.83% and the HEMOGLOBIN [2] was 14.3 G/DL. For the same molecule, the “LEUKOCYTE COUNT” value [2] was 15.23 x10E3/uL, the LYMPHOCYTE [2] was 83.7% and the “MEAN CORPUSCULAR HEMOGLOBIN” value [2] was 20.13 pg. The “MEAN CORPUSCULAR HEMOGLOBIN CONCENTRATION” value [2] was 31.1 G/DL, the “MEAN CORPUSCULAR VOLUME” value [2] was 64.77 fL and the MONOCYTE [2] was 1.6%. The NEUTROPHIL [2] was 11.93%, the “PLATELET COUNT” value [2] was 1499.67 x10E3/uL and the “ALANINE AMINOTRANSFERASE” value [2] was 36.67 u/L. For the same molecule, the ALBUMIN [2] was 3.67 G/DL, the “ALKALINE PHOSPHATASE” value [2] was 351.67 u/L and the “ASPARTATE AMINOTRANSFERASE” value [2] was 62.33 u/L. The “BLOOD UREA NITROGEN” value [2] was 14 mg/dL, the CHLORIDE [2] was 103.67 MEQ/L and the CHOLESTEROL [2] was 70.33 mg/dL. For the same molecule, the “CREATINE PHOSPHOKINASE” value [2] was 125.33 u/L, the CREATININE [2] was 0.6 mg/dL and the GLUCOSE [2] was 162.33 mg/dL. For the same molecule, the PHOSPHORUS [2] was 12.83 mg/dL, the POTASSIUM [2] was 7.2 MEQ/L and the SODIUM [2] was 147.67 MEQ/L. The “TOTAL BILIRUBIN” value [2] was 0.5 mg/dL, the “TOTAL PROTEIN” value [2] was 6.57 G/DL and the BASOPHIL [3] was 2.17%. For the same molecule, the EOSINOPHIL [3] was 0.4%, the “ERYTHROCYTE COUNT” value [3] was 6.89 x10E6/uL and the HEMATOCRIT [3] was 44.3%. The HEMOGLOBIN [3] was 14.03 G/DL, the “LEUKOCYTE COUNT” value [3] was 11 x10E3/uL and the LYMPHOCYTE [3] was 83.27%. For the same molecule, the “MEAN CORPUSCULAR HEMOGLOBIN” value [3] was 20.4 pg, the “MEAN CORPUSCULAR HEMOGLOBIN CONCENTRATION” value [3] was 31.7 G/DL and the “MEAN CORPUSCULAR VOLUME” value [3] was 64.43 fL. For the same molecule, the MONOCYTE [3] was 2.07%, the NEUTROPHIL [3] was 11.2% and the “PLATELET COUNT” value [3] was 1298.67 x10E3/uL. The “ALANINE AMINOTRANSFERASE” value [3] was 37.67 u/L, the ALBUMIN [3] was 3.63 G/DL and the “ALKALINE PHOSPHATASE” value [3] was 359 u/L. For the same molecule, the “ASPARTATE AMINOTRANSFERASE” value [3] was 62.33 u/L, the “BLOOD UREA NITROGEN” value [3] was 13.33 mg/dL and the CHLORIDE [3] was 101.33 MEQ/L. For the same molecule, the CHOLESTEROL [3] was 65 mg/dL, the “CREATINE PHOSPHOKINASE” value [3] was 109 u/L and the CREATININE [3] was 0.5 mg/dL. For the same molecule, the GLUCOSE [3] was 191 mg/dL, the PHOSPHORUS [3] was 12.2 mg/dL and the POTASSIUM [3] was 7.17 MEQ/L. For the same molecule, the SODIUM [3] was 147.33 MEQ/L, the “TOTAL BILIRUBIN” value [3] was 0.3 mg/dL and the “TOTAL PROTEIN” value [3] was 6.4 G/DL.
